According to patent US20030229451A1, “Methods and systems for analyzing complex biological systems” (priority 2001, published 2003):

Tested on: Saccharomyces cerevisiae wild type strain BY4743
Assay: AF1 metabolite analysis (GC-MS, LC-MS) of yeast cells treated with antifungal drugs
Assay type: cell-based
Conditions: for # Compounds perturbed: 2x MIC, two hours

C[C@@H]1[C@H](O)[C@@H](C)/C=C/C=C/C=C/C=C/C=C/C=C/C=C/[C@H](O[C@@H]2O[C@H](C)[C@@H](O)[C@H](N)[C@@H]2O)C[C@@H]2O[C@](O)(C[C@@H](O)C[C@@H](O)[C@H](O)CC[C@@H](O)C[C@@H](O)CC(=O)O[C@H]1C)C[C@H](O)[C@H]2C(=O)O [Amphoteracin B]
# Compounds perturbed (P < 0.05): 16
# Compounds perturbed (P < 0.1): 21
Fold Change (platform GC): −0.933
Fold Change, TMS mevalonic acid lactone (platform GC): −0.9767
Fold Change, alanine (platform GC): −0.7773
Fold Change, asparagine (platform GC): −1
Fold Change, aspartic acid (platform GC): −0.9743
Fold Change, campesterol (platform GC): 0
Fold Change, desmosterol (platform GC): 0
Fold Change, disaccaride1 (platform GC): −1
Fold Change, disaccaride2 (platform GC): −0.9977
Fold Change, disaccaride3 (platform GC): −0.9977
Fold Change, ergosterol (platform GC): 2.303
Fold Change, fucosterol (platform GC): −0.6553
Fold Change, glutamine (platform GC): −0.9116
Fold Change, glycanopyrose (platform GC): −0.958
Fold Change, glycerol (platform GC): −0.815
Fold Change, glycine (platform GC): 0.8807
Fold Change, hexadecanoic acid (platform GC): −0.2427
Fold Change, iso citric acid (platform GC): −0.6183
Fold Change, isoleucine (platform GC): −0.9533
Fold Change, lanosterol (platform GC): −1
Fold Change, leucine (platform GC): −0.9443
Fold Change, lysine (platform GC): −0.3925
Fold Change, malic acid (platform GC): −0.963
Fold Change, mevalonic acid lactone (platform GC): −0.1276
Fold Change, octadecanoic acid (platform GC): 0.21
Fold Change, oleic acid (platform GC): −0.4593
Fold Change, ornithine2 (platform GC): −1
Fold Change, ornithine3 (platform GC): −0.9853
Fold Change, palmiteliadic acid (platform GC): 0.515
Fold Change, phenylalanine (platform GC): −0.9797
Fold Change, phosphate (platform GC): −0.007333
Fold Change, pyrimidine (platform GC): −0.185
Fold Change, squalene (platform GC): −0.5745
Fold Change, tetradecanoic acid (platform GC): 0.07967
Fold Change, threonine2 (platform GC): −0.8553
Fold Change, threonine3 (platform GC): −0.8933
Fold Change, tms glutamine3 (platform GC): −0.8935
Fold Change, tms lysine4 (platform GC): −0.9783
Fold Change, tms tyrosine2 (platform GC): −0.3593
Fold Change, tms tyrosine3 (platform GC): −0.9473
Fold Change, valine (platform GC): −0.8673
Fold Change, 2-ketobutyric acid (platform nLC): −0.9992
Fold Change, 2-ketoglutaric (platform nLC): 8.791
Fold Change, 3-indolylacetonitri (platform nLC): −0.9998
Fold Change, 4-methylcatechol (platform nLC): 0
Fold Change, 4aminobutyrate/dimg (platform nLC): −0.1983
Fold Change, 5hydroxyLtryptophan (platform nLC): 0
Fold Change, 6-benzylaminopurine (platform nLC): 0
Fold Change, DLaminoadipic acid (platform nLC): 1.411
Fold Change, NacetylDglucosamine (platform nLC): 0
Fold Change, NacetylLglutamate (platform nLC): −0.1078
Fold Change, NacetylLornithine (platform nLC): 0
Fold Change, abscisic acid (platform nLC): 0
Fold Change, aconitic acid (platform nLC): 0.5426
Fold Change, adenine (platform nLC): 0
Fold Change, adenosine (platform nLC): 0
Fold Change, alanine (platform nLC): 0.1599
Fold Change, allantoic acid (platform nLC): −0.1456
Fold Change, allantoin (platform nLC): 3.97
Fold Change, anthranilic acid (platform nLC): 0
Fold Change, arginine (platform nLC): −0.4885
Fold Change, argininosuccinate (platform nLC): 0
Fold Change, asparagine (platform nLC): 0.1511
Fold Change, aspartic (platform nLC): 0.2407
Fold Change, benzoic acid (platform nLC): 0
Fold Change, biotin (platform nLC): 1.077
Fold Change, caffeic acid (platform nLC): −0.5882
Fold Change, catechol (platform nLC): 0
Fold Change, cinnamic acid (platform nLC): 0
Fold Change, citricanoic/itaconi. (platform nLC): 0
Fold Change, citrulline (platform nLC): 1659
Fold Change, coumaric acid (platform nLC): 0
Fold Change, cytidine (platform nLC): −0.9986
Fold Change, cytosine (platform nLC): 0
Fold Change, decanoic acid (platform nLC): −0.08716
Fold Change, diaminopimelic acid (platform nLC): 0
Fold Change, dihydrofolic acid (platform nLC): 0
Fold Change, estrone (platform nLC): 0
Fold Change, farnesol (platform nLC): 0
Fold Change, folic acid (platform nLC): 0
Fold Change, fumaric/3m2oxobutan (platform nLC): 0.4423
Fold Change, gallic acid (platform nLC): 0.1622
Fold Change, gibberellic (platform nLC): 0
Fold Change, glucosamine6PO4 (platform nLC): −0.9951
Fold Change, glutamic/acetylseri (platform nLC): 0.1414
Fold Change, glutamine/lysine (platform nLC): 0.07919
Fold Change, guanine (platform nLC): 0
Fold Change, guanosine (platform nLC): 1.131
Fold Change, histidine (platform nLC): 0
Fold Change, homogentisic/uric (platform nLC): 0
Fold Change, hydrocortisone (platform nLC): 0
Fold Change, hypoxanthine (platform nLC): 0.1655
Fold Change, indole3pyruvic acid (platform nLC): 0
Fold Change, inostol/glucos/sorb (platform nLC): −0.5905
Fold Change, isocitric/citric/qu (platform nLC): 2.549
Fold Change, jasmonic acid (platform nLC): 0
Fold Change, kinetin (platform nLC): 0
Fold Change, lactic acid (platform nLC): −0.02583
Fold Change, lauric acid (platform nLC): 0.1225
Fold Change, leucine/isoleucine/ (platform nLC): 0.1319
Fold Change, luteolin (platform nLC): 0
Fold Change, malic acid (platform nLC): 0.6212
Fold Change, malonic acid (platform nLC): 0
Fold Change, menthol* (platform nLC): −0.07013
Fold Change, methionine (platform nLC): 0
Fold Change, nicotinic acid (platform nLC): 0.3131
Fold Change, nopaline (platform nLC): 0.3342
Fold Change, oleic acid (platform nLC): 0.689
Fold Change, ornithine (platform nLC): 2.534
Fold Change, orotic acid (platform nLC): 8380
Fold Change, palmitic acid (platform nLC): 0.3979
Fold Change, phenylalanine (platform nLC): −0.1906
Fold Change, phenylpyruvic acid (platform nLC): 0
Fold Change, phosphoenolpyruvate (platform nLC): 0
Fold Change, pinitol (platform nLC): 0
Fold Change, pipecolic acid (platform nLC): 0.08112
Fold Change, porphobilinogen (platform nLC): 0
Fold Change, proline (platform nLC): 0.4603
Fold Change, pyridoxine (platform nLC): −0.1294
Fold Change, retinoic acid (platform nLC): 0
Fold Change, salicylic/HObenzoic (platform nLC): 0
Fold Change, selenoDLmethionine (platform nLC): 0.8515
Fold Change, serine (platform nLC): 0.1091
Fold Change, shikimic acid (platform nLC): 0
Fold Change, sinapinic acid (platform nLC): 0
Fold Change, sorbitol/mannitol (platform nLC): 0.2162
Fold Change, succinic (platform nLC): 0.8663
Fold Change, sucrose (platform nLC): 0.4493
Fold Change, sugar-phosphate (platform nLC): −0.1067
Fold Change, tetradecanoic acid (platform nLC): −0.07723
Fold Change, threonine/homoserin (platform nLC): 0.1267
Fold Change, thymine (platform nLC): 0
Fold Change, tryptophan (platform nLC): 1.142
Fold Change, tyrosine (platform nLC): 0.0982
Fold Change, uracil (platform nLC): 1.511
Fold Change, uridine (platform nLC): 0.1126
Fold Change, urocanic acid (platform nLC): 0
Fold Change, valine (platform nLC): 0.1624
Fold Change, xanthosineDiH2O (platform nLC): 0
Fold Change, zeatin (platform nLC): 0
Fold Change, 4-aminobenzoic acid (platform pLC): 0
Fold Change, 4-methylcatechol (platform pLC): 0
Fold Change, 4ambutyrate/dimglyc (platform pLC): 0.01279
Fold Change, 5hydroxyLtryptophan (platform pLC): 0
Fold Change, 6benzylaminopurine (platform pLC): 0
Fold Change, DL-aminoadipic acid (platform pLC): 0.4703
Fold Change, NacetylDglucosamine (platform pLC): 0
Fold Change, NacetylLglutamate (platform pLC): 0
Fold Change, NacetylLornithine (platform pLC): 1.319
Fold Change, abscisic acid (platform pLC): 0
Fold Change, adenine (platform pLC): 0.1153
Fold Change, adenosine (platform pLC): 0
Fold Change, alanine/sarcosine (platform pLC): 0.2602
Fold Change, allantoic acid (platform pLC): 0
Fold Change, anthranilic acid (platform pLC): 0
Fold Change, arginine (platform pLC): 0.4662
Fold Change, argininosuccinate (platform pLC): 0
Fold Change, asparagine (platform pLC): 0.6344
Fold Change, aspartic acid (platform pLC): 0.3594
Fold Change, biotin (platform pLC): 0
Fold Change, caffeine (platform pLC): 0
Fold Change, citric acid TME (platform pLC): 0
Fold Change, citrulline (platform pLC): 1.798
Fold Change, cytidine (platform pLC): 0
Fold Change, cytosine (platform pLC): 0
Fold Change, diaminopimelic acid (platform pLC): 0
Fold Change, dihydrofolic acid (platform pLC): 0
Fold Change, dipicolinic acid (platform pLC): 0
Fold Change, folic acid (platform pLC): 0
Fold Change, glucosamine (platform pLC): 0
Fold Change, glucosamine6PO4 (platform pLC): 0
Fold Change, glutamate (platform pLC): 0.4341
Fold Change, glutamine/lysine (platform pLC): 0.3981
Fold Change, glutathione (platform pLC): −0.03348
Fold Change, guanosine (platform pLC): 0.7598
Fold Change, histidine (platform pLC): 0
Fold Change, hydrocortisone (platform pLC): 0
Fold Change, hypoxanthine (platform pLC): 0.2057
Fold Change, itaconic acid dimes (platform pLC): 0
Fold Change, kinetin (platform pLC): 0
Fold Change, leucine/isoleucine/ (platform pLC): 0.2746
Fold Change, luteolin (platform pLC): 0
Fold Change, mannitol (platform pLC): 0.4543
Fold Change, methionine (platform pLC): 0.3299
Fold Change, mevalonic lactone (platform pLC): −0.4606
Fold Change, niacinamide (platform pLC): 0
Fold Change, nicotinic acid (platform pLC): −0.9989
Fold Change, nopaline (platform pLC): 0
Fold Change, ornithine (platform pLC): 0.5049
Fold Change, phenylalanine (platform pLC): 0.4036
Fold Change, phosphoenolpyruvate (platform pLC): 0
Fold Change, pipecolic acid (platform pLC): 0.5237
Fold Change, progesterone (platform pLC): 0
Fold Change, proline (platform pLC): 0.6707
Fold Change, pyridoxine (platform pLC): −0.1684
Fold Change, riboflavin (platform pLC): 0
Fold Change, selenoDLmethionine (platform pLC): 1.178
Fold Change, serine (platform pLC): 0.2011
Fold Change, sugar-phosphate (platform pLC): 0
Fold Change, thiamine (platform pLC): 0
Fold Change, threonine/homoserin (platform pLC): 0.3145
Fold Change, thymine (platform pLC): 0
Fold Change, tryptophan (platform pLC): 0
Fold Change, tyrosine (platform pLC): 0.2347
Fold Change, uric acid (platform pLC): 308
Fold Change, urocanic acid (platform pLC): 0
Fold Change, xanthosine(diH2O) (platform pLC): 0
Fold Change, zeatin (platform pLC): 0
